The target in experiment [1] is T1, bovine erythrocyte GPx (Bos taurus, UniProt P00435).
T1 construct: 180 μL of a bovine erythrocyte GPx1 solution (0.125 U/mL); purchased Sigma Aldrich (Taufkirchen, Germany); host or cells: bovine erythrocytes
T1 sequence (P00435 1-205): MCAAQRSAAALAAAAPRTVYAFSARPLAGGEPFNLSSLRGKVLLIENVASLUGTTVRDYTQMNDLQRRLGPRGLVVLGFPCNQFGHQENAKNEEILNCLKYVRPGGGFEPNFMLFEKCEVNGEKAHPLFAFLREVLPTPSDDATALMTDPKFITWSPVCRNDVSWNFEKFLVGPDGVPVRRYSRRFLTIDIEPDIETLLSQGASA
Nature of the experiment: GPx enzyme activity assay (TBHP/GSH, GR/NADPH coupled). The experiment is classed as biochemical. Particulars: 23 °C; n>3; 0.25 mM GSH; read-out: Enzyme inhibition IC50 (CI 95 %). The protocol: The ability of pentathiepins to inhibit the bovine erythrocyte GPx activity was assayed for by an established enzyme method, which is based on the GPx‐dependent reduction of tert‐butyl hydroperoxide (TBHP) by GSH, leading to the formation of GSSG, which is coupled to the reduction of GSSG back to GSH by glutathione reductase (GR) and the oxidation of NADPH to NADP^+[10] (Figure 1). Inhibition potencies of the compounds were ranked by their IC50 values; that is, concentration of the inhibitor at the inflection point in the sigmoidal log dose‐inhibition curve (Figure 4A), and are summarized for the pentathiepins and mercaptosuccinic acid (MSA) in Table 1.
GPx enzyme activity assay: To evaluate if the various compounds could inhibit GPx1, an enzymatic assay monitoring the activity of the bovine erythrocyte GPx was used as described previously.33 Bovine erythrocyte GPx is highly homologous to the human GPx1 (homology of 87 %)34 but much more affordable. In this assay, GPx reduces tert‐butylhydroperoxide (TBHP) followed by oxidation of glutathione (GSH) to the disulfide (GSSG), which in turn is regenerated to GSH by glutathione reductase (GR) with the consumption of NADPH. To each well of a UV‐transparent 96‐well plate were added 180 μL of a bovine erythrocyte GPx1 solution (0.125 U/mL) and 30 μL of prospective inhibitor in different concentrations diluted in DMF and incubated under shaking for 15 min at room temperature. Then 30 μL of stock solutions of GSH (2.5 mM) and baker's yeast GR plus NADPH (2 U/mL; 2.0 mM) were added. All stock solutions were prepared in potassium phosphate buffer (50 mM, pH 7.4, EDTA 1.1 mM, Triton‐X 0.01 %). The reaction was started by addition of TBHP solution (5 mM), giving final concentrations of 0.075 U/mL bovine erythrocyte GPx, 0.2 U/mL GR, 0.25 mM GSH, 0.2 mM NADPH and prospective inhibitor concentrations between 0.2–100 μM. The reaction was followed by the rate of decreasing absorption of the NADPH at λ=340 nm, measured every 15 s for ca. 20 min. The GPx activity related to untreated control was imported into the GraphPad Prism 6.0 software and the IC50 values were calculated by estimating the inflection point of the sigmoidal log concentration‐activity curves.

Experiment [2] concerns SISO cells. Briefly: Alkaline comet assay. The experiment is classed as cell-based, human. The conditions noted are these: 15 min at 0 °C. As for the experimental part:
(§1) To assess the induction of DNA strand breaks by pentathiepin 4 the Comet Assay was used. The SISO and HAP‐1 cell lines were treated with either 1 % DMF (solvent control), 20 μM H2O2 (positive control) or 25 μM 4 for 15 min at 0 °C. The DNA in the comet head corresponds to still intact genomic DNA while the tail forms due to the damage of nuclear DNA (Figure 9B). […] For HAP‐1 cells a greater reduction of intact DNA from 86 % in control cells to 66 % in pentathiepin‐incubated cells was observed.
(§2) Alkaline comet assay to assess induction of DNA strand breaks: The method was adapted from Olive and Banath.40 The alkaline protocol allows for the detection of single and double strand breaks as well as alkali‐labile sites and is based on the different electrophoretic mobility of intact and damaged nuclear DNA. […] The induction of strand breaks creates free charged ends that drift out and form the characteristic comet tail. The percentage of DNA that is located in the comet head was selected as descriptor, which corresponds to the amount of still intact genomic DNA.
(§3) Briefly, SISO and HAP‐1 cells were harvested by trypsinization and a single cell suspension with 50 000 cells per mL PBS was prepared. Per condition 50 000 cells were incubated on ice (to impair DNA repair) with either the solvent control DMF (1.0 %), 20 μM H2O2 or 25 μM 4 for 15 min. Afterwards, 400 μL of the cell suspension were mixed with 1.2 mL 1 % low melting point agarose (Carl Roth, Germany) at 40 °C and evenly distributed on agarose‐precoated (GeneOn, Germany) glass slides (Thermo Fisher). After 3 min polymerization the slides were horizontally submerged in lysis buffer (1.2 M NaCl (Carl Roth, Germany), 0.1 % N‐Lauryl‐Sarcosinate (Merck), 0.1 M Na‐EDTA, 0.26 M NaOH) and placed at 4 °C overnight. Before electrophoresis at 0.6 V/cm for 25 min the slides were rinsed three times in rinse/electrophoresis buffer (0.002 M Na‐EDTA, 0.03 M NaOH). Afterwards, the slides were neutralized in distilled water and subsequently stained with 250 μL of a 10 μg/mL PI in water solution for 20 min. Finally, the slides were analyzed with a Leica DMi8 fluorescent microscope and LASX software (Leica, Germany) and comets were scored with CometScore 2.0 (Rex A. Hoover, www.rexhoover.com). At least 100 comets were scored per condition.

For experiment [3], the system named is SISO human cervix cancer cell line. Nature of the experiment: Crystal violet proliferation assay. It counts as cell-based. Particulars: 37 °C, 96 h, n>4, read-out: Inhibition of cell viability GI50 (CI 95 %). The protocol: GI50 values for 50 % growth inhibition were all in a low micro molar range (Table 1). […] The indole−pentathiepins gave lower GI50 values than the pyrrolo[1,2‐a]quinoxaline derivatives. […] There was also a trend showing that an electron rich substituent in position R^2 increased the antiproliferative effect in SISO cells.
Crystal violet proliferation assay: To measure cell growth inhibition, the crystal violet assay was carried out as previously described.37 Adherent cell lines were seeded out in a 96‐well plate (1000 cells per 200 μL culture medium) and allowed to attach for 24 h. Cells were exposed to nine serial dilutions of compound, added to the medium from 1000‐fold concentrated stock solutions in DMF. For the controls, cells were exposed to 0.1 % DMF alone. After addition of compounds, plates for the detection of the starting point of the proliferation at incubation time zero (t 0) were stopped with glutaraldehyde (see below), washed with Dulbecco's buffer (containing KCl 0.2 g/L, MgSO4 ⋅ 7 H2O 0.1 g/L, Na2HPO4 ⋅ >7 H2O 1.55 g/L, KH2HPO4 0.2 g/L and NaCl 8 g/L in water) and stored at 4 °C until the staining procedure. Treated cells were incubated for 96 h in the incubator, the medium was removed and replaced with 100 μL of 1 % glutaraldehyde in Dulbecco's buffer for 20 min. After washing twice with 150 μL of Dulbecco's buffer, the buffer was removed and replaced with 100 μL of a 0.02 % crystal violet solution dissolved in water for 30 min and subsequently washed in tap water for 15 min. Water was removed and replaced with 100 μL of ethanol (70 % in water) followed by shaking on a 96‐well shaker (MS3 digital, IKA‐Werke, Germany) for 2 h. Optical density was measured with a SpectraMax Plus 383 microtiter plate reader at λ=570 nm (Molecular Devices, USA). The optical density of t 0 plates at the time of treatment were subtracted from optical densities of plates with treated cells after 96 h (T), and the growth inhibition relative to untreated, control cells (C) as described.22 Growth inhibition concentrations at 50 % (GI50) were calculated by determining the inflection point of the sigmoidal log dose‐growth inhibition (%T/C) curves with the GraphPad Prism 6.0 software.

Experiment [4] concerns HAP-1 cells. Briefly: Alkaline comet assay. It counts as cell-based, human. Particulars: 20 μM positive control, 15 min at 0 °C. As for the experimental part: as §1, §2, §3
For experiment [5], the system named is human GPx. Briefly: GPx activity assay with human cancer cell lysates (SISO). The experiment is classed as biochemical. The conditions noted are these: inhibitor at its IC50 for bovine GPx, 0.5 mM GSH. As for the experimental part: To investigate whether the pentathiepins have an inhibitory effect on human GPx, cell lysates of the human cervix cancer cell line SISO, which expresses high levels of GPx1 (see below), were incubated with either 4 or MSA in concentrations of the IC50 value for the inhibitory effect on bovine GPx1.
To measure the inhibition of human GPx activity, the enzyme assay was adapted to use human cancer cell lysates in place of the bovine enzyme. A quantity of 100 μg cellular protein (determined according to the Bradford method) per well was used. Due to the large consumption of cell lysates, just the inhibitory effect on GPx at one concentration of pentathiepin was determined in primary screening. The concentration of GSH was raised to a concentration of 0.5 mM to increase the velocity of the reaction, all other conditions were unchanged. The rates of NADPH oxidation were normalized to the solvent control. […] We used 100 μg protein of lysates and added GSH up to final concentrations between 0.375–3 mM. The rates of the GPx activity were calculated by nonlinear regression and the fitted with the GraphPad Prism 6.0 software: “Enzyme kinetics – Substrate vs. Velocity (Michaelis‐Menten)”.

In experiment [6] the target is T2, bovine GPx1 (Bos taurus, UniProt P00435).
T2 construct: 180 μL of a bovine erythrocyte GPx1 solution (0.125 U/mL); purchased Sigma Aldrich (Taufkirchen, Germany); host or cells: bovine erythrocytes
T2 sequence (P00435 1-205): T1 sequence (P00435 1-205)
Nature of the experiment: Jump-dilution experiments for reversibility of GPx1 inhibition. It counts as biochemical. Particulars: 30 min pre-incubation at 23 °C, 100-fold jump-dilution. The protocol: No difference in the inhibitory activity of 4 after jump‐dilution (Figure 4B left, a) was observed compared to expected inhibition at 0.25 μM (Figure 4B left, 0.25 μM), evidence that GPx1 inhibition is reversible. […] This is consistent with findings that MSA can act as an irreversible inhibitor of GPx1.11 In further jump‐dilution experiments, we pre‐incubated both inhibitors with the assay concentrations of either GSH and TBHP (a, d) or GSH only (b, e), with (a–c) and without (d–f) GPx1 for 30 min.
The jump‐dilution experiments were carried out in a 96‐well plates at room temperature. To each well was added 75 μL of a 20 IU mL^−1 GPx stock‐solution followed by the addition of 3 μL of a 2.5 mM solution of 4 in DMF and 30 μL of a 2.5 mM solution of GSH in buffer or 30 μL of a 2.5 mM solution of GSH in buffer and 30 μL of a 5 mM solution of TBHP in water and 300 μL buffer. The plates were shaken for 30 min in the dark, then each well was diluted 100 fold into a second plate prepared for the GPx‐assay. The enzyme activity was immediately measured as described above.

Experiment [7] has as its system SISO cells. Briefly: Fluorescence microscopy for lipid peroxidation (BODIPY 581/591). The conditions noted are these: 100 μM positive control, 24 h. It counts as cell-based, human. As for the experimental part: In another set of experiments, LPO was visualized by fluorescence microscopy with a dye for lipid peroxides, BODIPY 581/591. […] Together, our results point to apoptosis and not ferroptosis as the mechanism of cell death induced by 4.
Fluorescence microscopy for the detection of lipid peroxidation: SISO cells (250 000 cells) were seeded out in 6‐well plates with an inserted coverslip. Cells were allow to attach for 24 h and then exposed to 25 μM 4 or 100 μM tert‐butyl‐hydroperoxide as a positive control. After 24 h coverslips were washed with PBS and stained with 1 μM BODIPY 581/591 in culture medium for 30 min. Cells on the coverslips were then mounted and examined with a Leica DMi8 fluorescence microscope at λ ex/em=460–500/512–542 nm for the oxidized BODIPY 581/591 and λ ex/em=540–581/592–668 for the reduced form.

By IC50 is commonly meant the concentration that inhibits the measured activity by half. As a reminder, the GI50 is the concentration giving 50% growth inhibition.

Read-outs that look alike come from different tables or passages of the source.

Take `CCOc1c2c(c3cnc4ccccc4n13)SSSSS2` [Compound 1]: the IC50 in experiment [1] was determined as 1760 nM. For `CCOc1c2c(c3cnc4cc(C)ccc4n13)SSSSS2` [Compound 2, 12‐Ethoxy‐3‐methyl‐[1,2,3,4,5]pentathiepino[6′,7′ : 3,4]pyrrolo[1,2‐a]quinoxaline], the IC50 in experiment [1] was 520 nM. The same measure, in the same setting: the value for `CCOc1c2c(c3c(C(F)(F)F)nc4cc(C)ccc4n13)SSSSS2` [Compound 3, 12‐Ethoxy‐3‐methyl‐6‐(trifluoromethyl)‐[1,2,3,4,5]pentathiepino[6′,7′ : 3,4]pyrrolo[1,2‐a]quinoxaline] was 470 nM.

`CCOc1c2c(c3c(C(F)(F)F)nc4cc(C)c(C)cc4n13)SSSSS2` [Compound 5, 12‐Ethoxy‐2,3‐dimethyl‐6‐(trifluoromethyl)‐[1,2,3,4,5]pentathiepino[6′,7′ : 3,4]pyrrolo[1,2‐a]quinoxaline]: in experiment [2] (25 μM), the “percentage of undamaged (intact) DNA in comet head” value is reported as 80%. In experiment [1], the IC50 is 1860 nM. `Cn1c2c(c3ccccc31)SSSSS2` [Compound 6, 6‐Methyl‐6H‐[1,2,3,4,5]pentathiepino[6,7‐b]indole]: the IC50 in experiment [1] turned out to be 950 nM. Further, the GI50 in experiment [3] (Homo sapiens) was 3500 nM.

With `CCn1c2c(c3cc(Cl)ccc31)SSSSS2` [Compound 7, 9‐Chloro‐6‐ethyl‐6H‐[1,2,3,4,5]pentathiepino[6,7‐b]indole], the IC50 in experiment [1] turned out to be 400 nM. Moreover, in experiment [3] (Homo sapiens), the 50% growth inhibitory concentration (GI50) came out at 1500 nM. For `c1ccc(Cn2c3c(c4ccccc42)SSSSS3)cc1` [Compound 8, 6‐Benzyl‐6H‐[1,2,3,4,5]pentathiepino[6,7‐b]indole], in that order: 830 nM and 1400 nM. `OO` [Compound H2O2, hydrogen peroxide, reference compound]: the “intact DNA in comet head” value in experiment [4] and in experiment [2] (20 μM positive control) was “significant decreases of intact DNA” each time. `O=C(O)CC(S)C(=O)O` (stereo not drawn) [MSA, mercaptosuccinic acid, reference compound]: the “inhibition of GPx activity” value in experiment [5] is given as 60%. In experiment [1], the IC50 was found to be 5860 nM. The GI50 in experiment [3] turned out to be 57100 nM. Further, the “reversibility of GPx1 inhibition” value in experiment [6] is given as “some irreversible inhibition had occurred”. Take `CC(C)(C)OO` [tBuOOH, reference compound]: in experiment [7], the “lipid peroxidation (LPO)” value is given as “showed LPO”.
